Test system: intestinal epithelial cell lines T84
Assay: IL-4 mediated barrier disruption in T84 monolayers (flux and transepithelial resistance)
Assay type: cell-based, human
Details: for protective effect on IL-4 mediated barrier destruction (4 kD dextran flux), FIG. 1: 10 μM and 100 μM, time and dose dependent; for effect on IL-4 mediated barrier disruption (flux), in words: 100 μM, Table 1 summary, compared to control
Protocol: Monolayers (MC) of intestinal epithelial cell lines T84 (ATCC, USA) were cultured on transwell filters (Corning, Costar BV, The Netherlands) allowing both mucosal and serosal sampling and stimulation of human intestinal epithelial cells. Two weeks post confluency the monolayers were incubated in the presence of IL-4 (2 ng/ml, serosal compartment, Sigma, USA) with or without polyunsaturated fatty acids ARA, DHA, GLA, EPA, or control palmitic acid (10 μM or 100 μM, mucosal compartment, Sigma, St. Louis, USA). Cells were pre-incubated with ARA, DHA, EPA, or palmitic acid for 48 hr prior to the IL-4 incubation. The co-incubation of PUFA's and palmitic acid with IL-4 was continued for another 48 hr; while culture medium and additives were changed every 24 hr. The epithelial barrier function was determined by measuring the transepithelial resistance (TER) and permeability.

Compound | IL-4 Flux (100 μM fatty acid, mucosal, IL-4 2 ng/ml, serosal, 48 hr pre-incubation + 48 hr co-incubation, permeability (4 kD dextran flux)) | IL-4 TER (100 μM fatty acid, mucosal, IL-4 2 ng/ml, serosal, 48 hr pre-incubation + 48 hr co-incubation, transepithelial resistance) | protective effect on IL-4 mediated barrier destruction (4 kD dextran flux), FIG. 1 | effect on IL-4 mediated barrier disruption (flux), in words
CC/C=C\C/C=C\C/C=C\C/C=C\C/C=C\C/C=C\CCC(=O)O [DHA, docosahexaenoic acid] | 271 | 547 | – | –
CCCCC/C=C\C/C=C\C/C=C\CCCCC(=O)O [GLA] | – | – | protect against IL-4 mediated barrier disruption | –
CCCCC/C=C\C/C=C\C/C=C\C/C=C\CCCC(=O)O [ARA, arachidonic acid] | – | – | protect against IL-4 mediated barrier disruption | inhibit the increased flux caused by IL-4
CCCCCCCCCCCCCCCC(=O)O [Palmitic acid, palmitic acid, reference compound] | – | – | – | detrimental effect
